Legend:
Assay type in all cases: in vivo
[1] = test system: C57BL/6 male mice fed high fat diet; assay: Fat vacuoles in hepatocytes, HE-stained liver tissue (Test Example 2); conditions: for Fat vacuole area, Significant difference: 1% level; for Fat vacuole area (Mean ± Standard error): 8 weeks
Experimental: The following test was carried out in the same manner as in Test Example 1 for (1) test animal, (2) diet, and (3) preparation of sample. The diet and the sample water (test substance aqueous solution or distilled water) listed in Table 1 were administered to mice in each group and the animals were fed for 8 weeks. After 8-week test feeding, pentobarbital of 100 mg/kg of body weight was intraperitoneally administered to mice, and the mice were euthanized, and then liver was excised. The liver tissue excised from mice was stained with hematoxylin-eosin (HE) and a specimen observation under a microscope was carried out. Moreover, the results of microscopic observation were analyzed by the following method and a significant difference was evaluated by the t-test. […] This photographing was performed for four mice per group to obtain 16 microscopic images in total per group. At first, stained parts such as cytoplasm and nucleus in hepatocytes were selected by the image analysis. Then fat vacuole parts were selected by color inversion and the number of pixels for the selected fat vacuole parts was considered as a fat vacuole area. In the analysis, Dynamic Cell Count software accompanying fluorescence microscope BZ-9000 was used.

[2] = test system: C57BL/6 male mice fed high fat diet; assay: Blood ketone bodies value after 8-week feeding (Test Example 1); set-up: key to Blood ketone bodies value, Significant difference: *: a significant difference was observed at 1% level of significance relative to group 3; conditions: for Blood ketone bodies value (Mean ± Standard error): 8 weeks
Source text: (§1) Eight-week-old C57BL/6 male mice (CLEA Japan, Inc.) were divided at random into groups (each group: four animals) and then used. As a normal diet, solid diet MF (lipid component 5.3%, manufactured by Oriental Yeast Co., Ltd.) was used. As a high-fat diet, solid diet High Fat Diet 32 (lipid component 32.0%, manufactured by CLEA Japan, Inc.) was used. As a sample water, 2.5% by weight of aqueous sucrose solution, 2.25% by weight of aqueous maltitol solution, and 4.5% by weight of aqueous maltitol solution obtained by respectively dissolving, as a test substance, sucrose (manufactured by Wako Pure Chemical Industries, Ltd.) and maltitol (Whole Crystalline Maltitol Ueno 60M, having maltitol purity of 90%, manufactured by Ueno Fine Chemicals Industry, Ltd.) in distilled water were used. Distilled water was used as a negative sample. The sample water was administered by making it available ad libitum and the amount of sample water intake was recorded. The dose of sucrose per day calculated from the concentration of the sample water and the water intake was 3 g per 1 kg of body weight. The dose of maltitol per day calculated in the same manner as above was 2.7 g per 1 kg of body weight in mice receiving 2.25% aqueous maltitol solution, and 4.5 g per 1 kg of body weight in mice receiving 4.5% aqueous maltitol solution. The diet and the sample water (test substance aqueous solution or distilled water) listed in Table 1 were administered to mice in each group, and the animals were fed for 8 weeks. After 8-week test feeding, pentobarbital of 0.5 mg/10 g of body weight was intraperitoneally administered to mice, and blood was collected from the tail vein under deep anesthesia. Further, by using Precision Xceed β-Ketone Measuring Electrode (manufactured by Abbott Japan Co., Ltd.), ketone bodies value in blood, which is an indicator of fat burning in the liver, was measured. A significant difference test by the t-test method was performed on blood AST values, blood ALT values, and blood ketone bodies values were evaluated by performing significant difference tests on these values via t-test.

[3] = test system: C57BL/6 male mice fed high fat diet; assay: Blood AST value and blood ALT value after 8-week feeding (Test Example 1); set-up: key to Blood ALT value, Significant difference: *: a significant difference was observed at 1% level of significance relative to group 3
Source text: as §1, with “anesthesia. With respect to the serum from the collected blood sample of mice, blood AST” for “anesthesia. Further, by using Precision Xceed β-Ketone Measuring Electrode (manufactured by Abbott Japan Co., Ltd.), ketone bodies”, “value and blood ALT value” for “value in blood,”, “which are each” for “which is”, “of liver function were measured using a Transaminase C-II Test Wako Kit (Wako Pure Chemical Industries, Ltd.).” for “of fat burning in the liver, was measured.”

[4] = Group 3: high fat diet + 2.5% aqueous sucrose solution
[5] = Group 3: high fat diet + 2.5% aqueous sucrose solution ad libitum, 8 weeks (3 g/kg/day)
[6] = Group 4: high fat diet + 2.25% aqueous maltitol solution
[7] = Group 5: high fat diet + 4.5% aqueous maltitol solution
[8] = Group 4: high fat diet + 2.25% aqueous maltitol solution ad libitum, 8 weeks (2.7 g/kg/day)
[9] = Group 5: high fat diet + 4.5% aqueous maltitol solution ad libitum, 8 weeks (4.5 g/kg/day)

## OC[C@H]1O[C@@](CO)(O[C@H]2O[C@H](CO)[C@@H](O)[C@H](O)[C@H]2O)[C@@H](O)[C@@H]1O [sucrose, reference compound]
[1]; Group 3 (2.5% sucrose solution) relative to group 2 (high fat diet + distilled water)
  Fat vacuole area, Significant difference: No
[1]; [4]
  Fat vacuoles in microscopic observation: reduction of the fat vacuoles is limited
  Fat vacuole area (Mean ± Standard error): 306930 ± 28549 pixel
[2]; [4]
  Blood ketone bodies value (Mean ± Standard error): 0.08 ± 0.03 mmol/L
[3]; [5]
  Blood ALT value (Mean ± Standard error): 50 ± 12 IU/L
  Blood AST value (Mean ± Standard error): 244 ± 107 IU/L

## OC[C@@H](O)[C@@H](O[C@H]1O[C@H](CO)[C@@H](O)[C@H](O)[C@H]1O)[C@H](O)[C@@H](O)CO [maltitol]
[1]; Group 4 (2.25% maltitol solution) relative to group 2 (high fat diet + distilled water)
  Fat vacuole area, Significant difference: significantly smaller and Yes
[1]; [6]
  Fat vacuoles in microscopic observation: few fat vacuoles were observed
  Fat vacuole area (Mean ± Standard error): 256145 ± 29037 pixel
[1]; Group 5 (4.5% maltitol solution) relative to group 2 (high fat diet + distilled water)
  Fat vacuole area, Significant difference: significantly smaller and Yes
[1]; [7]
  Fat vacuoles in microscopic observation: few fat vacuoles were observed
  Fat vacuole area (Mean ± Standard error): 264982 ± 16387 pixel
[2]; Group 4 (2.25% aqueous maltitol solution) in comparison with group 3 (sucrose)
  Blood ketone bodies value, change in words: significant improvement effect
[2]; Group 4 (2.25% aqueous maltitol solution) relative to group 3 (sucrose), t-test
  Blood ketone bodies value, Significant difference: *
[2]; [6]
  Blood ketone bodies value (Mean ± Standard error): 0.20 ± 0.04 mmol/L
[2]; Group 5 (4.5% aqueous maltitol solution) relative to group 3 (sucrose)
  Blood ketone bodies value, change in words: increased
[2]; [7]
  Blood ketone bodies value (Mean ± Standard error): 0.18 ± 0.05 mmol/L
[3]; Group 4 (2.25% aqueous maltitol solution) relative to group 3 (sucrose)
  Blood AST value, change in words: tendency to be decreased
[3]; [8]
  Blood ALT value (Mean ± Standard error): 41 ± 14 IU/L
  Blood AST value (Mean ± Standard error): 205 ± 77 IU/L
[3]; Group 5 (4.5% aqueous maltitol solution) compared to group 3 (sucrose)
  Blood ALT value, change in words: significantly decreasing the blood ALT value
[3]; Group 5 (4.5% aqueous maltitol solution) compared with group 1 (normal diet + distilled water)
  Blood AST value, change in words: decreased to a level equivalent to that in group 1
[3]; Group 5 (4.5% aqueous maltitol solution) relative to group 3 (sucrose), t-test
  Blood ALT value, Significant difference: *
[3]; [9]
  Blood ALT value (Mean ± Standard error): 11 ± 1 IU/L
  Blood AST value (Mean ± Standard error): 54 ± 3 IU/L

Reference: patent US9155752B2, “Liver function-improving agent” (UENO FINE CHEMICALS INDUSTRY, LTD., priority 2012, dated 2015)
